Experimental data as given in PMC6688628, “N-Substituted Pyrrole Derivative 12m Inhibits HIV-1 Entry by Targeting Gp41 of HIV-1 Envelope Glycoprotein” (Frontiers in Pharmacology, 2019).

How the values were obtained:
[1] = XTT assay, U87-CD4-CCR5 cells; format: cell-based; conditions: human
Procedure: (§1) The in vitro cell viability of NSPD-12m on HIV-1 target cells (U87-CD4-CXCR4, U87-CD4-CCR5, TZM-bl, and MT-2 cells) and HIV effector cells (CHO-WT cells) was analyzed by an XTT colorimetric assay. Briefly, 100 µl of 5 × 10^5/ml cells was mixed and incubated with 100 µl of NSPD-12m at graded concentrations at 37°C for 3 days. Then, 50 µl of XTT solution (1 mg/ml) containing 0.02 µM of phenazinemethosulphate (PMS) was added to each well, and the cells were incubated at 37°C for another 4 h. The absorbance at 450 nm was measured with an ELISA reader. The 50% cytotoxicity concentrations (CC50) were calculated using the CalcuSyn software ([Chou and Talalay, 1984]).

XTT assay, TZM-bl cells = format: cell-based; conditions: human
Procedure: as §1

[2] = system: HIV-1HXB2 (X4 strain) Env pseudotyped virus; assay: microbe, parasite or virus in culture; format: cell-based; conditions: Human immunodeficiency virus 1, single-cycle infection, luciferase
HIV-1 R5 virus = assay: Cell-cell HIV-1 R5 transmission, MT-2 to CEMx174 5.25 M7 cells; format: cell-based; conditions: Human immunodeficiency virus 1; infected MT-2 to CEMx174 5.25 M7 cells; luciferase
Procedure: Inhibition of fusion between MT-2 cells infected by HIV-1 strains (X4 and R5 viruses) with CEMx174 5.25 M7 cells, which express CD4 and both coreceptors, CXCR4 and CCR5, was determined by a luciferase assay. Briefly, MT-2 cells were infected with the corresponding HIV-1 strains for 7 days. The infected MT-2 cells were washed three times and resuspended in culture medium to 2 × 10^5/ml. Then, 50 μl of a compound at graded concentrations in triplicate was incubated with equal volumes of HIV-1-infected MT-2 cells at 37°C for 30 min. Next, 100 μl of CEMx174 5.25 M7 cells (4 × 10^5/ml) was added, and the cells were incubated at 37°C for 3 days. The cells were collected, washed, and lysed with the lysing reagent included in the luciferase kit (Promega, Corp., Madison, Wis). Aliquots of cell lysates were transferred to 96-well flat-bottom luminometer plates (Costar), followed by the addition of luciferase substrate (Promega). Luciferase activity was measured using an Ultra 384 luminometer. ADS-J1 was used as a positive control for all cell–cell fusion assays.

gp41 6-HB (N36/C34) [3] = target: T1, gp41 6-HB (N36/C34) (Human immunodeficiency virus type 1 group M subtype B, UniProt P04578); assay: Sandwich ELISA for gp41 6-HB formation; format: biochemical, HIV-1; conditions: sandwich ELISA with mAb NC-1; 0.5-µM N36 and C34
T1 construct: purchased GL Biochem of China; host or cells: chemical solid-phase Fmoc synthesis
T1 sequence (P04578 546-581): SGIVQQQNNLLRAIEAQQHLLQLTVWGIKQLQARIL
Procedure: The inhibition of gp41 6-HB formation by NSPD-12m was determined by a sandwich ELISA as previously described ([Liu et al., 2007]). In brief, the wells of a 96-well polystyrene plate (Corning) were first precoated with 2 µg/ml IgG purified from rabbit antisera against the N36/C34 complex at 4°C overnight. In addition, the wells were blocked by 2% dry nonfat milk at 37°C for 1 h. NSPD-12m at graded concentrations was incubated with 0.5-µM N36 at 37°C for 30 min, followed by the addition of 0.5-µM C34 at 37°C for another 30-min incubation. Afterward, the previously mentioned mixtures were added to the prepared wells and incubated at 37°C for another 1 h. Then, 1 µg/ml mAb NC-1, biotin-labeled goat anti-mouse IgG (1:10,000 diluted in PBS buffer with 2% dry nonfat milk), SA-HRP (1:20,000 diluted in PBS buffer with 10% goat serum), TMB, and 1-M H2SO4 were added sequentially. A450 was measured by an ELISA reader, and EC50 was calculated using CalcuSyn software ([Chou and Talalay, 1984]). NB-64, a small-molecule HIV entry inhibitor targeting gp41, and ADS-J1 were used as positive controls.

gp41 6-HB (N36/C34) [4] = target: T1, gp41 6-HB (N36/C34); assay: N-PAGE for gp41 6-HB formation; format: biochemical, HIV-1; conditions: 400, 200, 100, 50, and 25 μM incubated with N36 before C34; dose-dependent
Procedure: The inhibition of gp41 6-HB formation by NSPD-12m was further confirmed by N-PAGE as reported previously ([Liu et al., 2005]). Briefly, NSPD-12m at the indicated concentrations was incubated with the peptide N36 (100 μM in PBS) at 37°C for 30 min before the addition of the peptide C34 (100 μM in PBS). After incubation at 37°C for another 30 min, the mixture was diluted in Tris-glycine native sample buffer (Invitrogen, Carlsbad, CA) and then loaded onto 10 × 1.0-cm precast Tris-glycine gels (18%, Invitrogen) at 20 µl/well. Gel electrophoresis was carried out at constant voltage of 120 V at room temperature (RT) for 2 h in Tris-glycine native running buffer. Immediately after electrophoresis, the gel was stained by Coomassie blue (Invitrogen) and imaged by the FluorChem 8800 Imaging System (Alpha Innotech, San Leandro, CA). ADS-J1 (1 mM in PBS), a small-molecule HIV-1 entry inhibitor that blocks gp41 6-HB formation, was used as a positive control ([Wang et al., 2009]).

`Cc1cc(/C=C2\SC(=S)N(Cc3ccccc3C(F)(F)F)C2=O)c(C)n1-c1ccc(O)c(C(=O)O)c1` [NSPD-12m] showed a CC50 at 3 days [1] of 84.7 ± 14.5 µM, a CC90 at 3 days [1] of 102 ± 18.3 µM and a CC50 at 3 days (XTT assay, TZM-bl cells) of 79 ± 11.4 µM. For the same compound, the CC90 at 3 days (XTT assay, TZM-bl cells) was 118 ± 18 µM, the EC50 [2] was roughly 23.1 µM and the EC50 (HIV-1 R5 virus) was 1.42 ± 0.3 µM. For the same compound, the EC50 (gp41 6-HB (N36/C34) [3]) was 23 ± 1.44 µM and the “intensity of the 6-HB band (upper position) in N-PAGE” value (gp41 6-HB (N36/C34) [4]) was “decreased”.
